Source: US20050239656A1, “Pyridine compounds or salts thereof and herbicides containing the same” (priority 2002, published 2005)

How the values were obtained:
barnyardgrass [1] = assay: Test Example 2: soil surface treatment, upland pot test; type: in vivo, Echinochloa crus-galli L.; details: observed 20th to 28th day
Procedure, shortened: (§1)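 Readout was visual percent growth control (0 matching untreated, 100 complete kill) at days 20–28. Compound, as emulsifiable concentrate or wettable powder at a preset active-ingredient rate in 1,500 L/ha water, was sprayed onto sown upland soil one day after sowing.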

corn = assay: as above; type: in vivo, Zea mays L.; details: observed 20th to 28th day
Procedure, shortened: as §1

japanese bulrush = assay: Test Example 3: paddy pot test, application under submerged conditions; type: in vivo, Scirpus juncoides; details: active ingredient 250 g/ha; submerged application at 0.5 leaf stage; visually observed 14 days after application; 0 = non-treated, 100 = complete kill
Procedure, shortened: (§2)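 Visual rating of growth control (0% equals untreated, 100% complete kill) made 14 days after treatment. Compound, formulated as wettable powder or emulsifiable concentrate and diluted in water, was pipetted under submerged conditions at predetermined active-ingredient doses once weeds reached 0.5-leaf (barnyardgrass, bulrush) or primary-leaf (wapato, from tubers) stage. Pots of greenhouse paddy soil held 3–4 cm flooding.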

soybean = assay: Test Example 2: soil surface treatment, upland pot test; type: in vivo, Glycine max Merr.; details: observed 20th to 28th day
Procedure, shortened: as §1

redroot pigweed = assay: as above; type: in vivo, Amaranthus retroflexus L.; details: observed 20th to 28th day
Procedure, shortened: as §1

wheat = assay: as above; type: in vivo, Triticum spp.; details: observed 20th to 28th day
Text: Upland field soil was put into a 1/170,000 ha pot, and seed of various plants (barnyardgrass, crabgrass, green foxtail, redroot pigweed, prickly sida, velvetleaf, rice, wheat, corn, soybean) were sown. On the 1st day after the sowing, a wettable powder or emulsifiable concentrate having the compound of the present invention formulated in accordance with a usual formulation method, was weighed so that the active ingredient would be a predetermined amount, and diluted with water in an amount of 1,500 L/ha. The herbicide thus adjusted was applied by a small size sprayer for soil surface treatment. On the 20th to 28th days after the application of the herbicide, the growth of the respective plants was visually observed, and the herbicidal effects were evaluated by the growth controlling degrees (%) ranging from 0 (equivalent to the non-treated plot) to 100 (complete kill), whereby the results shown in Table 4, were obtained.

velvetleaf = assay: as above; type: in vivo, Abutilon theophrasti MEDIC.; details: observed 20th to 28th day
Procedure, shortened: as §1

rice (var. Nihonbare) = assay: Test Example 3: paddy pot test, transplanted rice; type: in vivo, Oryza sativa L.; details: active ingredient 250 g/ha, applied 4th day after transplantation, visually observed 21st day after application, 0 = non-treated, 100 = complete kill
Procedure, shortened: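 Visual crop-injury rating (0 = as untreated, 100 = complete kill, %) taken 21 days post-application. Treatment: formulated compound, water-diluted, pipetted into 3–4 cm flood water at a preset active-ingredient dose, 4 days after transplanting 2-leaf Nihonbare rice 3 cm deep in puddled paddy soil.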

crabgrass = assay: Test Example 2: soil surface treatment, upland pot test; type: in vivo, Digitaria sanguinalis L.; details: observed 20th to 28th day
Procedure, shortened: as §1

prickly sida = assay: as above; type: in vivo, Sida spinosa L.; details: observed 20th to 28th day
Procedure, shortened: as §1

rice = assay: as above; type: in vivo, Oryza sativa L.; details: observed 20th to 28th day
Procedure, shortened: as §1

green foxtail = assay: as above; type: in vivo, Setaria viridis L.; details: observed 20th to 28th day
Procedure, shortened: as §1

barnyardgrass [2] = assay: Test Example 3: paddy pot test, application under submerged conditions; type: in vivo, Echinochloa crus-galli L.; details: active ingredient 250 g/ha; submerged application at 0.5 leaf stage; visually observed 14 days after application; 0 = non-treated, 100 = complete kill
Procedure, shortened: as §2

Compound: CC(C)=CC(=O)N(C)C(c1cnccc1C(F)(F)F)C(C)C (stereo not drawn) [Compound I-205]
- Growth controlling degree (%) Barnyardgrass (barnyardgrass [1]; active ingredient 250 g/ha): 100%
- Growth controlling degree (%) Corn (corn; active ingredient 250 g/ha): 40%
- Growth controlling degree (%) Japanese bulrush (japanese bulrush): 98%
- Growth controlling degree (%) Soyabean (soybean; active ingredient 250 g/ha): 30%
- Growth controlling degree (%) Redroot pigweed (redroot pigweed; active ingredient 250 g/ha): 80%
- Growth controlling degree (%) wheat (wheat; active ingredient 250 g/ha): 95%
- Growth controlling degree (%) Velvetleaf (velvetleaf; active ingredient 250 g/ha): 60%
- Growth controlling degree (%) Rice (rice (var. Nihonbare)): 20%
- Growth controlling degree (%) Crabgrass (crabgrass; active ingredient 250 g/ha): 100%
- Growth controlling degree (%) Prickly sida (prickly sida; active ingredient 250 g/ha): 70%
- Growth controlling degree (%) Rice (rice; active ingredient 250 g/ha): 70%
- Growth controlling degree (%) Green foxtail (green foxtail; active ingredient 250 g/ha): 100%
- Growth controlling degree (%) Barnyardgrass (barnyardgrass [2]): 100%

Compound: CC(C)C(c1cnccc1C(F)(F)F)N(C)C(=O)Cc1ccc(Br)cc1F (racemic) [Compound I-137]
- Growth controlling degree (%) Barnyardgrass (barnyardgrass [1]; active ingredient 250 g/ha): 98%
- Growth controlling degree (%) Corn (corn; active ingredient 250 g/ha): 10%
- Growth controlling degree (%) Japanese bulrush (japanese bulrush): 98%
- Growth controlling degree (%) Soyabean (soybean; active ingredient 250 g/ha): 20%
- Growth controlling degree (%) Redroot pigweed (redroot pigweed; active ingredient 250 g/ha): 50%
- Growth controlling degree (%) wheat (wheat; active ingredient 250 g/ha): 30%
- Growth controlling degree (%) Velvetleaf (velvetleaf; active ingredient 250 g/ha): 50%
- Growth controlling degree (%) Rice (rice (var. Nihonbare)): 0%
- Growth controlling degree (%) Crabgrass (crabgrass; active ingredient 250 g/ha): 98%
- Growth controlling degree (%) Prickly sida (prickly sida; active ingredient 250 g/ha): 50%
- Growth controlling degree (%) Rice (rice; active ingredient 250 g/ha): 40%
- Growth controlling degree (%) Green foxtail (green foxtail; active ingredient 250 g/ha): 100%
- Growth controlling degree (%) Barnyardgrass (barnyardgrass [2]): 100%

Compound: CC(C)C(c1cnccc1C(F)(F)F)N(C)C(=O)C(F)=Cc1ccccc1 (stereo not drawn) [Compound I-207]
- Growth controlling degree (%) Barnyardgrass (barnyardgrass [1]; active ingredient 250 g/ha): 100%
- Growth controlling degree (%) Corn (corn; active ingredient 250 g/ha): 30%
- Growth controlling degree (%) Japanese bulrush (japanese bulrush): 100%
- Growth controlling degree (%) Soyabean (soybean; active ingredient 250 g/ha): 30%
- Growth controlling degree (%) Redroot pigweed (redroot pigweed; active ingredient 250 g/ha): 60%
- Growth controlling degree (%) wheat (wheat; active ingredient 250 g/ha): 20%
- Growth controlling degree (%) Velvetleaf (velvetleaf; active ingredient 250 g/ha): 50%
- Growth controlling degree (%) Rice (rice (var. Nihonbare)): 10%
- Growth controlling degree (%) Crabgrass (crabgrass; active ingredient 250 g/ha): 98%
- Growth controlling degree (%) Prickly sida (prickly sida; active ingredient 250 g/ha): 80%
- Growth controlling degree (%) Rice (rice; active ingredient 250 g/ha): 40%
- Growth controlling degree (%) Green foxtail (green foxtail; active ingredient 250 g/ha): 100%
- Growth controlling degree (%) Barnyardgrass (barnyardgrass [2]): 98%

Compound: CC(=O)N(C)C(c1cnccc1C(F)(F)F)C(C)C (stereo not drawn) [I-208]
- Growth controlling degree (%) Barnyardgrass (barnyardgrass [1]; active ingredient 250 g/ha): 100%
- Growth controlling degree (%) Corn (corn; active ingredient 250 g/ha): 70%
- Growth controlling degree (%) Japanese bulrush (japanese bulrush): 98%
- Growth controlling degree (%) Soyabean (soybean; active ingredient 250 g/ha): 60%
- Growth controlling degree (%) Redroot pigweed (redroot pigweed; active ingredient 250 g/ha): 90%
- Growth controlling degree (%) wheat (wheat; active ingredient 250 g/ha): 80%
- Growth controlling degree (%) Velvetleaf (velvetleaf; active ingredient 250 g/ha): 50%
- Growth controlling degree (%) Rice (rice (var. Nihonbare)): 70%
- Growth controlling degree (%) Crabgrass (crabgrass; active ingredient 250 g/ha): 100%
- Growth controlling degree (%) Prickly sida (prickly sida; active ingredient 250 g/ha): 80%
- Growth controlling degree (%) Rice (rice; active ingredient 250 g/ha): 100%
- Growth controlling degree (%) Green foxtail (green foxtail; active ingredient 250 g/ha): 100%
- Growth controlling degree (%) Barnyardgrass (barnyardgrass [2]): 98%

Compound: CC(C)C(c1cnccc1C(F)(F)F)N(C)C(=O)Cc1ccc(Br)c(F)c1 (racemic) [Compound I-129]
- Growth controlling degree (%) Barnyardgrass (barnyardgrass [1]; active ingredient 500 g/ha): 98%
- Growth controlling degree (%) Corn (corn; active ingredient 500 g/ha): 30%
- Growth controlling degree (%) Japanese bulrush (japanese bulrush): 90%
- Growth controlling degree (%) Soyabean (soybean; active ingredient 500 g/ha): 10%
- Growth controlling degree (%) Redroot pigweed (redroot pigweed; active ingredient 500 g/ha): 40%
- Growth controlling degree (%) wheat (wheat; active ingredient 500 g/ha): 30%
- Growth controlling degree (%) Velvetleaf (velvetleaf; active ingredient 500 g/ha): 10%
- Growth controlling degree (%) Rice (rice (var. Nihonbare)): 0%
- Growth controlling degree (%) Crabgrass (crabgrass; active ingredient 500 g/ha): 98%
- Growth controlling degree (%) Prickly sida (prickly sida; active ingredient 500 g/ha): 70%
- Growth controlling degree (%) Rice (rice; active ingredient 500 g/ha): 30%
- Growth controlling degree (%) Green foxtail (green foxtail; active ingredient 500 g/ha): 100%
- Growth controlling degree (%) Barnyardgrass (barnyardgrass [2]): 100%

Compound: CC(C)C(Br)C(=O)N(C)C(c1cnccc1C(F)(F)F)C(C)C (stereo not drawn) [Compound I-197]
- Growth controlling degree (%) Barnyardgrass (barnyardgrass [1]; active ingredient 500 g/ha): 100%
- Growth controlling degree (%) Corn (corn; active ingredient 500 g/ha): 20%
- Growth controlling degree (%) Japanese bulrush (japanese bulrush): 98%
- Growth controlling degree (%) Soyabean (soybean; active ingredient 500 g/ha): 10%
- Growth controlling degree (%) Redroot pigweed (redroot pigweed; active ingredient 500 g/ha): 90%
- Growth controlling degree (%) wheat (wheat; active ingredient 500 g/ha): 50%
- Growth controlling degree (%) Velvetleaf (velvetleaf; active ingredient 500 g/ha): 50%
- Growth controlling degree (%) Rice (rice (var. Nihonbare)): 0%
- Growth controlling degree (%) Crabgrass (crabgrass; active ingredient 500 g/ha): 100%
- Growth controlling degree (%) Prickly sida (prickly sida; active ingredient 500 g/ha): 70%
- Growth controlling degree (%) Rice (rice; active ingredient 500 g/ha): 40%
- Growth controlling degree (%) Green foxtail (green foxtail; active ingredient 500 g/ha): 100%
- Growth controlling degree (%) Barnyardgrass (barnyardgrass [2]): 100%
